Measured values from the supplement of paper PMC8617591.

Key:
[1] = system: Mycobacterium tuberculosis Erdman (autoluminescent); test: GRinf, maximum normalised growth rate inhibition (three-drug combination) (unitless (-1 to 1)); higher = less effect (negative = killing)
Method: (§1)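 DiaMOND equipotent three-drug combination dose responses (10 doses, 1.5- or 2-fold spacing, centred on IC90) against autoluminescent M. tuberculosis Erdman in 8 in vitro models. Read-out is OD600, or luminescence for the intracellular and dormancy models, normalised to untreated wells. Hill-fit Einf, AUC25 and GRinf are potency metrics; FIC50 and FIC90 are total Loewe fractional inhibitory concentrations as log2 (negative = synergy).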

[2] = system: Mycobacterium tuberculosis Erdman (autoluminescent); test: total FIC50 (Loewe) at 50% inhibition, three-drug combination (log2); higher = more antagonistic
Method: as §1

[3] = system: Mycobacterium tuberculosis Erdman (autoluminescent); test: Einf, fitted maximum growth inhibition of three-drug combination (fraction); higher = stronger maximal inhibition
Method: as §1

[4] = system: Mycobacterium tuberculosis Erdman (autoluminescent); test: total FIC90 (Loewe) at 90% inhibition, three-drug combination (log2); higher = more antagonistic
Method: as §1

[5] = system: Mycobacterium tuberculosis Erdman (autoluminescent); test: AUC25, normalised area under dose response up to IC25 (three-drug combination) (fraction (0-1)); higher = more potent at low dose
Method: as §1

CC(=O)NC[C@H]1CN(c2ccc(N3CCOCC3)c(F)c2)C(=O)O1 [linezolid] + COc1c(N2C[C@@H]3CCCN[C@@H]3C2)c(F)cc2c(=O)c(C(=O)O)cn(C3CC3)c12 [moxifloxacin] + CO[C@H]1/C=C/O[C@@]2(C)Oc3c(C)c(O)c4c(O)c(c(/C=N/N5CCN(C6CCCC6)CC5)c(O)c4c3C2=O)NC(=O)/C(C)=C\C=C\[C@H](C)[C@H](O)[C@@H](C)[C@@H](O)[C@@H](C)[C@H](OC(C)=O)[C@@H]1C [rifapentine]
Conditions	AUC25, [5]	Einf, [3]	GRinf, [1]	total FIC50, [2]	total FIC90, [4]
in vitro model: acidic pH 5.7, time point: constant (~7 days, model-specific)	0.0572	0.8	0.0276	0.827	–
in vitro model: acidic pH 5.7, time point: terminal (~4-5 doublings, model-specific)	0.0558	0.976	-0.0724	0.952	0.684
in vitro model: intracellular J774, time point: constant = terminal	–	0.911	-0.0811	–	0.0429

Conditions	AUC25, [5]	Einf, [3]	GRinf, [1]	total FIC50, [2]	total FIC90, [4]
in vitro model: butyrate, time point: constant (~7 days, model-specific)	0.0841	0.876	0.149	0.365	0.691
in vitro model: butyrate, time point: terminal (~4-5 doublings, model-specific)	0.0527	0.929	0.0958	0.352	0.196
in vitro model: cholesterol 0.05 mM, time point: constant (~7 days, model-specific)	0.157	0.694	-0.35	0.586	–
in vitro model: cholesterol 0.05 mM, time point: terminal (~4-5 doublings, model-specific)	0.129	0.909	-0.32	0.581	-0.237
in vitro model: cholesterol-high 0.2 mM, time point: constant (~7 days, model-specific)	0.11	0.913	-0.639	0.553	0.386
in vitro model: cholesterol-high 0.2 mM, time point: terminal (~4-5 doublings, model-specific)	0.113	1	-0.938	0.377	0.836
in vitro model: dormancy (butyrate + nitrate, low O2), time point: constant (~7 days, model-specific)	0.0602	0.862	0.223	1.04	0.925
in vitro model: dormancy (butyrate + nitrate, low O2), time point: terminal (~4-5 doublings, model-specific)	0.0346	0.979	-0.11	1.31	1.02
in vitro model: standard 7H9 glycerol, time point: constant = terminal	0.0607	0.902	0.0317	0.709	0.569
in vitro model: valerate, time point: constant (~7 days, model-specific)	0.109	0.834	0.129	0.0907	–
in vitro model: valerate, time point: terminal (~4-5 doublings, model-specific)	0.0452	0.914	0.0886	0.472	0.387

CC(=O)NC[C@H]1CN(c2ccc(N3CCOCC3)c(F)c2)C(=O)O1 [linezolid] + COc1c(N2C[C@@H]3CCCN[C@@H]3C2)c(F)cc2c(=O)c(C(=O)O)cn(C3CC3)c12 [moxifloxacin] + CO[C@H]1/C=C/O[C@@]2(C)Oc3c(C)c(O)c4c(O)c(c(/C=N/N5CCN(C)CC5)c(O)c4c3C2=O)NC(=O)/C(C)=C\C=C\[C@H](C)[C@H](O)[C@@H](C)[C@@H](O)[C@@H](C)[C@H](OC(C)=O)[C@@H]1C [rifampicin]
Conditions	AUC25, [5]	Einf, [3]	GRinf, [1]	total FIC50, [2]	total FIC90, [4]
in vitro model: acidic pH 5.7, time point: constant (~7 days, model-specific)	0.0527	0.811	-0.0255	0.498	–
in vitro model: acidic pH 5.7, time point: terminal (~4-5 doublings, model-specific)	0.0717	0.984	-0.147	0.628	0.503
in vitro model: intracellular J774, time point: constant = terminal	–	0.919	-0.103	–	0.656

Conditions	AUC25, [5]	Einf, [3]	GRinf, [1]	total FIC50, [2]	total FIC90, [4]
in vitro model: butyrate, time point: constant (~7 days, model-specific)	0.0848	0.857	0.177	0.137	–
in vitro model: butyrate, time point: terminal (~4-5 doublings, model-specific)	0.0684	0.929	0.128	0.112	0.0683
in vitro model: cholesterol 0.05 mM, time point: constant (~7 days, model-specific)	0.156	0.709	-0.119	0.272	–
in vitro model: cholesterol 0.05 mM, time point: terminal (~4-5 doublings, model-specific)	0.124	0.916	-0.285	4.84	-0.628
in vitro model: cholesterol-high 0.2 mM, time point: constant (~7 days, model-specific)	0.0752	0.889	-0.343	0.731	-0.284
in vitro model: cholesterol-high 0.2 mM, time point: terminal (~4-5 doublings, model-specific)	0.0984	1	-0.901	0.947	0.931
in vitro model: dormancy (butyrate + nitrate, low O2), time point: constant (~7 days, model-specific)	0.0613	0.873	0.239	1.14	0.815
in vitro model: dormancy (butyrate + nitrate, low O2), time point: terminal (~4-5 doublings, model-specific)	0.0476	0.971	-0.0219	0.897	0.88
in vitro model: standard 7H9 glycerol, time point: constant = terminal	0.0568	0.839	0.261	0.691	–
in vitro model: valerate, time point: constant (~7 days, model-specific)	0.0669	0.803	0.0279	0.393	–
in vitro model: valerate, time point: terminal (~4-5 doublings, model-specific)	0.0324	0.928	0.0628	0.609	0.105

CC(=O)NC[C@H]1CN(c2ccc(N3CCOCC3)c(F)c2)C(=O)O1 [linezolid] + COc1c(N2C[C@@H]3CCCN[C@@H]3C2)c(F)cc2c(=O)c(C(=O)O)cn(C3CC3)c12 [moxifloxacin] + NC(=O)c1cnccn1 [pyrazinamide]
Conditions	AUC25, [5]	Einf, [3]	GRinf, [1]	total FIC50, [2]	total FIC90, [4]
in vitro model: acidic pH 5.7, time point: constant (~7 days, model-specific)	0.0593	0.734	-0.345	-0.252	–
in vitro model: acidic pH 5.7, time point: terminal (~4-5 doublings, model-specific)	0.0649	0.955	-0.38	1.52	-0.8
in vitro model: intracellular J774, time point: constant = terminal	–	0.939	-0.17	–	0.559

Conditions	AUC25, [5]	Einf, [3]	GRinf, [1]	total FIC50, [2]	total FIC90, [4]
in vitro model: butyrate, time point: constant (~7 days, model-specific)	0.108	0.891	0.0582	0.00706	2.34
in vitro model: butyrate, time point: terminal (~4-5 doublings, model-specific)	0.0904	0.952	0.0307	0.0931	0.745
in vitro model: cholesterol 0.05 mM, time point: constant (~7 days, model-specific)	0.145	0.704	-0.234	–	–
in vitro model: cholesterol 0.05 mM, time point: terminal (~4-5 doublings, model-specific)	0.147	0.932	-0.426	0.356	–
in vitro model: cholesterol-high 0.2 mM, time point: constant (~7 days, model-specific)	0.106	0.923	-0.819	0.486	–
in vitro model: cholesterol-high 0.2 mM, time point: terminal (~4-5 doublings, model-specific)	0.115	1	-1	0.334	0.717
in vitro model: dormancy (butyrate + nitrate, low O2), time point: constant (~7 days, model-specific)	0.0721	0.855	0.269	0.651	0.461
in vitro model: dormancy (butyrate + nitrate, low O2), time point: terminal (~4-5 doublings, model-specific)	0.0321	0.973	-0.0525	0.786	0.354
in vitro model: standard 7H9 glycerol, time point: constant = terminal	0.0843	0.962	-0.271	–	–
in vitro model: valerate, time point: constant (~7 days, model-specific)	0.0976	0.87	0.12	-0.0785	–
in vitro model: valerate, time point: terminal (~4-5 doublings, model-specific)	0.0603	0.921	0.0594	0.266	0.56

CC(=O)NC[C@H]1CN(c2ccc(N3CCOCC3)c(F)c2)C(=O)O1 [linezolid] + COc1c(N2C[C@@H]3CCCN[C@@H]3C2)c(F)cc2c(=O)c(C(=O)O)cn(C3CC3)c12 [moxifloxacin] + O=[N+]([O-])c1cn2c(n1)OC[C@@H](OCc1ccc(OC(F)(F)F)cc1)C2 [pretomanid]
Conditions	AUC25, [5]	Einf, [3]	GRinf, [1]	total FIC50, [2]	total FIC90, [4]
in vitro model: acidic pH 5.7, time point: constant (~7 days, model-specific)	0.113	0.883	-0.748	0.776	–
in vitro model: acidic pH 5.7, time point: terminal (~4-5 doublings, model-specific)	0.0579	0.945	-0.404	1.08	0.694
in vitro model: intracellular J774, time point: constant = terminal	–	0.954	-0.659	–	1.38

Conditions	AUC25, [5]	Einf, [3]	GRinf, [1]	total FIC50, [2]	total FIC90, [4]
in vitro model: butyrate, time point: constant (~7 days, model-specific)	0.0971	0.916	0.0148	0.594	0.801
in vitro model: butyrate, time point: terminal (~4-5 doublings, model-specific)	0.0695	0.953	0.0166	0.499	0.736
in vitro model: cholesterol 0.05 mM, time point: constant (~7 days, model-specific)	0.14	0.692	-0.183	0.0017	–
in vitro model: cholesterol 0.05 mM, time point: terminal (~4-5 doublings, model-specific)	0.134	0.908	-0.206	0.534	0.307
in vitro model: cholesterol-high 0.2 mM, time point: constant (~7 days, model-specific)	0.121	0.923	-0.45	0.187	1.91
in vitro model: cholesterol-high 0.2 mM, time point: terminal (~4-5 doublings, model-specific)	0.117	0.989	-0.722	0.117	0.839
in vitro model: dormancy (butyrate + nitrate, low O2), time point: constant (~7 days, model-specific)	0.0437	0.879	0.219	0.988	0.456
in vitro model: dormancy (butyrate + nitrate, low O2), time point: terminal (~4-5 doublings, model-specific)	0.0489	0.979	-0.165	1.01	0.983
in vitro model: standard 7H9 glycerol, time point: constant = terminal	0.0706	0.962	-0.151	0.466	0.766
in vitro model: valerate, time point: constant (~7 days, model-specific)	0.138	0.861	-0.229	-0.643	–
in vitro model: valerate, time point: terminal (~4-5 doublings, model-specific)	0.0994	0.918	-0.0505	-0.495	0.791

CC(=O)NC[C@H]1CN(c2ccc(N3CCOCC3)c(F)c2)C(=O)O1 [linezolid] + NC(=O)c1cnccn1 [pyrazinamide] + CO[C@H]1/C=C/O[C@@]2(C)Oc3c(C)c(O)c4c(O)c(c(/C=N/N5CCN(C6CCCC6)CC5)c(O)c4c3C2=O)NC(=O)/C(C)=C\C=C\[C@H](C)[C@H](O)[C@@H](C)[C@@H](O)[C@@H](C)[C@H](OC(C)=O)[C@@H]1C [rifapentine]
Conditions	AUC25, [5]	Einf, [3]	GRinf, [1]	total FIC50, [2]	total FIC90, [4]
in vitro model: acidic pH 5.7, time point: constant (~7 days, model-specific)	0.105	0.91	-0.206	0.0539	–
in vitro model: acidic pH 5.7, time point: terminal (~4-5 doublings, model-specific)	0.0872	0.992	-0.258	-0.0159	–
in vitro model: intracellular J774, time point: constant = terminal	–	0.947	-0.174	–	-0.0473

Conditions	AUC25, [5]	Einf, [3]	GRinf, [1]	total FIC50, [2]	total FIC90, [4]
in vitro model: butyrate, time point: constant (~7 days, model-specific)	0.0966	0.892	0.08	-0.0866	–
in vitro model: butyrate, time point: terminal (~4-5 doublings, model-specific)	0.0673	0.94	0.0873	0.038	-0.132
in vitro model: cholesterol 0.05 mM, time point: constant (~7 days, model-specific)	0.143	0.758	-0.43	–	–
in vitro model: cholesterol 0.05 mM, time point: terminal (~4-5 doublings, model-specific)	0.139	0.938	-0.446	0.219	–
in vitro model: cholesterol-high 0.2 mM, time point: constant (~7 days, model-specific)	0.112	0.952	-0.497	0.301	–
in vitro model: cholesterol-high 0.2 mM, time point: terminal (~4-5 doublings, model-specific)	0.0909	1	-0.945	0.319	-0.0261
in vitro model: dormancy (butyrate + nitrate, low O2), time point: constant (~7 days, model-specific)	0.0577	0.867	0.245	0.405	0.766
in vitro model: dormancy (butyrate + nitrate, low O2), time point: terminal (~4-5 doublings, model-specific)	0.0343	0.976	-0.12	0.486	0.153
in vitro model: standard 7H9 glycerol, time point: constant = terminal	0.0547	0.876	0.183	0.187	–
in vitro model: valerate, time point: constant (~7 days, model-specific)	0.0698	0.865	0.0833	-0.277	–
in vitro model: valerate, time point: terminal (~4-5 doublings, model-specific)	0.0324	0.921	0.0692	-0.0139	-0.406
